What all share (type): cell-based, rat
One assay has as its system SOX9 target genes. Nature of the assay: Q-PCR of SOX9 target gene expression in aged primary astrocyte cultures. On the set-up: reduction of XT-1 expression / reduction of HAPLN1 expression / reduction of aggrecan expression / reduction of Col2a expression / reduction of Col4a expression: concentration or dose not given beside the values. From the text: Another approach to modulating the capacity of calmodulin to transport SOX9 into the nucleus is via competitive inhibition of calmodulin binding. To that effect, a novel peptide (SOX-CAL) was generated to specifically block the calmodulin SOX9 binding site. The SOX-CAL peptide sequence, […] (SEQ ID NO.8), corresponds with the calmodulin binding sequence in SOX9. To ensure the peptide's entry into the cell, it was synthesized fused to the protein transduction domain of the HIV-1 Tat protein. […] This analysis was performed in contrast to the control FLAG-TAT peptide.
Antagonists to TRPV4 cation channel were tested to determine their ability to decrease the activity of SOX9 in astrocytes. The effect of TRPV4 antagonists on SOX9 function was evaluated in cultured rat astrocytes transfected with pGL4.1 4×48 Col2a1. The day after transfection, cells were treated for 24 h with 2-APB (100 μM) or ruthenium red (10 μM) before the luciferase assay was performed. The broad-spectrum transient receptor potential (TRP) channel antagonist 2-APB inhibited SOX9 activity by ˜70%, while the vanniloid subfamily-specific TRP antagonist ruthenium red inhibited SOX9 activity by ˜25%. With respect to SOX9 target genes, Q-PCR analysis of aged primary astrocyte cultures was performed to determine the impact of the TRPV4 antagonists on SOX9. Treatment with ruthenium red specifically reduces aggrecan and Col4a expression by 40% and 50%, respectively (FIG. 6B), while 2-APB reduces XT-1, HAPLN1, aggrecan, Col2a, and Col4a by 50%, 70%, 80%, 50%, and 60% respectively (FIG. 6B, C), in rat primary astrocytes after a 48 hour exposure (n=3). […] Based on the role that the TRP channels serve in modulating calcium levels, and therefore calmodulin activity, the effect of the TRP channel blockers on SOX9 activity appears to be indirect.

The test system of a further assay is SOX9. Nature of the assay: SOX9 luciferase reporter assay in transfected astrocytes. The following applies: for inhibition of SOX9 activity (luciferase assay): 24 h; for luciferase reporter activity (SOX9 activity) / concentration at which the decrease in luciferase reporter activity is optimized / maximal: cultured rat astrocytes; for luciferase reporter activity (SOX9 activity) / reduction of Sox9 activity as indicated by luciferase expression / concentration at which the decrease in luciferase reporter activity is optimized / maximal: 24 h treatment; for luciferase reporter activity (SOX9 activity): various concentrations (FIG. 5); for reduction of Sox9 activity as indicated by luciferase expression: concentration not stated (FIG. 5). The source says: Cultures early after plating bear characteristics of immature and reactive astroctyes associated with acute damage. In this assay, primary astrocytes are transfected with a SOX9 reporter construct that consists of 4 repeats of the SOX9 binding site coupled to the mouse Col2a1 minimal promoter cloned upstream of a luciferase gene in the plasmid pGL4, as previously described in WO 2008/049226. After normalization for transfection efficiency, SOX9 activity can be monitored in transfected astrocytes by luciferase activity. Cells transfected with the SOX9 reporter construct were cultured in the presence and absence of potential inhibitors for 24 hours at which time the cells were lysed and luciferase levels measured. Compounds that reduced the levels of luciferase activity relative to control wells were considered as positive “hits”. In a secondary screen, false positives that cause a reduction in luciferase activity due to effects on cell viability, were eliminated using a cell viability assay (CellTiter-Flour—Promega). Subsequent to secondary screening, the “hits” were evaluated for their affect on SOX9 target gene expression by Q-PCR studies in primary astrocytes.
The utility of calmodulin antagonists (inhibitor) to decrease SOX9 target gene expression was evaluated in cultured rat astrocytes transfected with pGL4.1 4×48 Col2a1 prepared as described in Example 1. This plasmid contains 4-48 bp SOX9-binding sites from the Col2A1 enhancer which promote luciferase reporter gene expression in cells where SOX9 is active i.e. in the nucleus. The day after transfection, cells were treated for 24 h with inhibitor in concentrations as described below and in FIG. 5 before the luciferase assay was performed.
In this example, the potential of compounds that modulate calcium channels to modulate SOX9 activity is tested. The compounds were evaluated in cultured rat astrocytes transfected with pGL4.1 4×48 Col2a1. The day after transfection, cells were treated for 24 h with selected inhibitors before the luciferase assay was performed.
Antagonists to TRPV4 cation channel were tested to determine their ability to decrease the activity of SOX9 in astrocytes. The effect of TRPV4 antagonists on SOX9 function was evaluated in cultured rat astrocytes transfected with pGL4.1 4×48 Col2a1. The day after transfection, cells were treated for 24 h with 2-APB (100 μM) or ruthenium red (10 μM) before the luciferase assay was performed. […] With respect to SOX9 target genes, Q-PCR analysis of aged primary astrocyte cultures was performed to determine the impact of the TRPV4 antagonists on SOX9. […] Collagen IV is a significant scarring extracellular matrix produced by astrocytes and contributing to the inhibitory properties of the glial scar.

A further assay deals with Collagen IV. The assay is described as follows: Western blotting of astrocyte culture protein extract probed with anti-collagen IV. The following applies: Cal-TAT treated vs control cultures.
Where [1] appears, read: rat primary astrocytes, 48 hour exposure, n=3.
[2] abbreviates: primary astrocyte cultures, in contrast to control FLAG-TAT peptide (FIG. 7C).

The results in this text go back to US20130266663A1, “SOX9 INHIBITORS” (priority 2010, published 2013).

Turning to `NCCOB(c1ccccc1)c1ccccc1` [2-APB], in the assay with SOX9 target genes (setting [1]), the “reduction of Col2a expression” value stood at 50%, the “reduction of Col4a expression” value stood at 60%, the “reduction of HAPLN1 expression” value was 70% and the “reduction of XT-1 expression” value is listed as 50%. Also, the “reduction of aggrecan expression” value in the assay on SOX9 target genes (setting [1]) amounted to 80%. For the same molecule, the “inhibition of SOX9 activity (luciferase assay)” value with SOX9 (100 μM) is on record as approximately 70%. Also, in the assay on SOX9, the “luciferase reporter activity (SOX9 activity)” value is reported as “significantly reduce luciferase production”.

For the molecule `Clc1ccc(C(c2ccc(Cl)cc2)n2cc[n+](CC(OCc3ccc(Cl)cc3Cl)c3ccc(Cl)cc3Cl)c2)cc1` (stereo not drawn) [Calmidazolium, calmidazolium], the “reduction of Sox9 activity as indicated by luciferase expression” value (“reduction of Sox9 activity as indicated” below) in the assay with SOX9 is recorded as “approximately 20%”.

As for `OCCN1CCN(CCCN2c3ccccc3Sc3ccc(C(F)(F)F)cc32)CC1` [Fluphenazine, fluphenazine], the “luciferase reporter activity (SOX9 activity)” value in the assay on SOX9 is reported as “dose dependent decrease in reporter activity”.

As to `COc1ccc2cc1Oc1ccc(cc1)C[C@H]1c3cc(c(OC)cc3CCN1C)Oc1c(OC)c(OC)cc3c1[C@H](C2)N(C)CC3` [Tetrandine, Tetrandrine], in the assay with SOX9, the “reduction of Sox9 activity as indicated” value is “approximately 20%”.

Take `NCCCCCCNS(=O)(=O)c1cccc2ccccc12` [W5]: in the assay on SOX9, the “concentration at which the decrease in luciferase reporter activity is optimized / maximal” value is 50 µM and the “luciferase reporter activity (SOX9 activity)” value is recorded as “does dependent decreases in reporter activity”.

For `NCCCCCCNS(=O)(=O)c1cccc2c(Cl)cccc12` [W7], in the assay on SOX9, the “concentration at which the decrease in luciferase reporter activity is optimized / maximal” value was 50 µM and the “luciferase reporter activity (SOX9 activity)” value is “does dependent decreases in reporter activity”.

For the molecule `CC(COc1ccccc1)N(CCCl)Cc1ccccc1` (stereo not drawn) [phenoxybenzamine], in the assay on SOX9, the “reduction of Sox9 activity as indicated” value is given as “up to 80%”; the “luciferase reporter activity (SOX9 activity)” value was “dose dependent inhibition of reporter activity at 20 and 50 uM”.

Regarding `N.N.N.N.N.N.N.N.N.N.N.N.N.N.[Cl-].[Cl-].[Cl-].[Cl-].[Cl-].[Cl-].[O-2].[O-2].[Ru+3].[Ru+3].[Ru+4]` [ruthenium red], in the assay with SOX9 target genes (setting [1]), the “reduction of Col4a expression” value is 50% and the “reduction of aggrecan expression” value was determined as 40%. The “inhibition of SOX9 activity (luciferase assay)” value in the assay with SOX9 (10 μM) is reported as approximately 25%. Further, in the assay on SOX9, the “reduction of Sox9 activity as indicated” value is recorded as “about 25%” and the “luciferase reporter activity (SOX9 activity)” value is “significantly reduce luciferase production”.

For “Cal-TAT: SOX-CAL peptide fused to the HIV-1 Tat transduction domain, one N-/C-terminal configuration (KRPMNAFMVWAQAARRKYGRKKRRQRRR)”, in the assay on SOX9 target genes (10 uM peptide, 48 hours), the “expression of C4ST” value is on record as “significantly reduced” and the “expression of XT1” value is reported as “significantly reduced”. In addition, in the assay with SOX9 target genes (setting [2]), the “Collagen 2A expression” value was “significant reduction”, the GFAP expression result is “significant reduction”, the XT-1 expression entry is given as “significant reduction” and the aggrecan expression result was “significant reduction”. Besides, the brevican expression result in the assay on SOX9 target genes (setting [2]) is reported as “significant reduction”. Moreover, the “level of type IV collagen (Western blot)” value in the assay with Collagen IV was “reduced level of type IV collagen”.

Turning to RRPMNAFMVWAQAARRK [SOX-CAL peptide], the “SOX9 target genes expression” value in the assay on SOX9 target genes (longer treatments (1 week)) is given as “even more profound reductions”.

As to “TAT-Cal: SOX-CAL peptide fused to the HIV-1 Tat transduction domain, other N-/C-terminal configuration (YGRKKRRQRRRKRPMNAFMVWAQAARRK)”, in the assay with SOX9 target genes (10 uM peptide, 48 hours), the “expression of C4ST” value is listed as “significantly reduced”, the “expression of Sox9” value was “increased” and the “expression of XT1” value is reported as “significantly reduced”.
